The source made the active and inactive calls. The rule behind the calls is not given here.
Experiments:
Pseudomonas aeruginosa [1] = test: Antibacterial activity against Pseudomonas aeruginosa 262-101856 assessed as reduction in bacterial growth by measuring chloramphenicol MIC at 8 ug/ml incubated for 18 hrs in presence of chloramphenicol by broth microdilution assay (reference value: 2048 ug/ml); type: functional; settings: dose 8 µg/ml
Pseudomonas aeruginosa [2] = test: Antibacterial activity against wild type Pseudomonas aeruginosa PAO1 assessed as reduction in bacterial growth by measuring chloramphenicol MIC at 0.25 ug/ml incubated for 18 hrs in presence of chloramphenicol by broth microdilution assay (reference value: 32 ug/ml); type: functional; settings: dose 0.25 µg/ml
Pseudomonas aeruginosa [3] = test: Antibacterial activity against Pseudomonas aeruginosa 259-96918 assessed as reduction in bacterial growth by measuring doxycycline MIC at 8 ug/ml incubated for 18 hrs in presence of doxycycline by broth microdilution assay (reference value: 32 ug/ml); type: functional; settings: dose 8 µg/ml
Pseudomonas aeruginosa [4] = test: Antibacterial activity against Pseudomonas aeruginosa 260-97103 assessed as fractional inhibitory concentration incubated for 18 hrs in presence of chloramphenicol by broth microdilution assay; type: functional
Pseudomonas aeruginosa [5] = test: Antibacterial activity against Pseudomonas aeruginosa 100036 assessed as reduction in bacterial growth by measuring chloramphenicol MIC at 8 ug/ml incubated for 18 hrs in presence of chloramphenicol by broth microdilution assay (reference value: 1024 ug/ml); type: functional; settings: dose 8 µg/ml
Pseudomonas aeruginosa [6] = test: Antibacterial activity against Pseudomonas aeruginosa 259-96918 assessed as fractional inhibitory concentration incubated for 18 hrs in presence of tigecycline by broth microdilution assay; type: functional
Pseudomonas aeruginosa [7] = test: Antibacterial activity against Pseudomonas aeruginosa 259-96918 assessed as potentiation of doxycycline-induced antibacterial activity by measuring doxycycline MIC at 9.8 uM incubated for 18 hrs in presence of doxycycline by broth microdilution assay (reference value: 32 ug/ml); type: functional
Pseudomonas aeruginosa [8] = test: Antibacterial activity against Pseudomonas aeruginosa 114228 assessed as fractional inhibitory concentration index incubated for 18 hrs in presence of rifampicin by broth microdilution assay; type: functional
Pseudomonas aeruginosa [9] = test: Potentiation of chloramphenicol-induced bactericidal activity against Pseudomonas aeruginosa PAO1 assessed as reduction in bacterial colonies at 4.9 to 9.8 microM incubated for upto 24 hrs in LB medium in presence of chloramphenicol followed by plating on agar plate and measured after 20 hrs by time-kill assay; type: functional, organism-based; settings: dose 4.9-9.8 µM, time hrs <=44
Pseudomonas aeruginosa [10] = test: Potentiation of chloramphenicol-induced antibacterial activity against wild type Pseudomonas aeruginosa PAO1 assessed as fold change in chloramphenicol MIC at <=9.8 uM incubated for 18 hrs in presence of chloramphenicol by broth microdilution assay; type: functional; settings: dose microM <=9.8
Pseudomonas aeruginosa [11] = test: Potentiation of chloramphenicol-induced antibacterial activity against Pseudomonas aeruginosa 91433 assessed as fold change in chloramphenicol MIC at 9.8 uM incubated for 18 hrs in presence of chloramphenicol by broth microdilution assay relative to control; type: functional
HepG2 = test: Cytotoxicity against human HepG2 cells assessed as cell viability at 50 uM incubated for 48 hrs in presence of doxycycline by prestoblue assay; type: cell-based; settings: hepg2, 48 h
Pseudomonas aeruginosa [12] = test: Antibacterial activity against Pseudomonas aeruginosa 259-96918 assessed as fractional inhibitory concentration index incubated for 18 hrs in presence of tigecycline by broth microdilution assay; type: functional
Pseudomonas aeruginosa [13] = test: Antibacterial activity against Pseudomonas aeruginosa 101885 assessed as fractional inhibitory concentration index incubated for 18 hrs in presence of rifampicin by broth microdilution assay; type: functional
Pseudomonas aeruginosa [14] = test: Antibacterial activity against Pseudomonas aeruginosa 260-97103 infected in Galleria mellonella larvae assessed as survival of larvae at 100 mg/kg treated at 3 hrs post-infection in presence of chloramphenicol and measured after 18 hrs relative to control; type: functional
Pseudomonas aeruginosa [15] = test: Antibacterial activity against Pseudomonas aeruginosa 114228 assessed as fractional inhibitory concentration index incubated for 18 hrs in presence of minocycline by broth microdilution assay; type: functional
Pseudomonas aeruginosa [16] = test: Antibacterial activity against Pseudomonas aeruginosa 101885 assessed as fractional inhibitory concentration index incubated for 18 hrs in presence of minocycline by broth microdilution assay; type: functional
Pseudomonas aeruginosa [17] = test: Antibacterial activity against Pseudomonas aeruginosa 101885 assessed as fractional inhibitory concentration incubated for 18 hrs in presence of tigecycline by broth microdilution assay; type: functional
[18] = Toxicity in Galleria mellonella larvae assessed as larval survival at 100 mg/kg measured after 96 hrs; type: organism-based; settings: in vivo
Pseudomonas aeruginosa [19] = test: Antibacterial activity against Pseudomonas aeruginosa 262-101856 assessed as fractional inhibitory concentration index incubated for 18 hrs in presence of minocycline by broth microdilution assay; type: functional
Pseudomonas aeruginosa [20] = test: Antibacterial activity against Pseudomonas aeruginosa 114228 assessed as potentiation of chloramphenicol-induced antibacterial activity by measuring chloramphenicol MIC at 9.8 uM incubated for 18 hrs in presence of chloramphenicol by broth microdilution assay (reference value: 64 ug/ml); type: functional
Pseudomonas aeruginosa [21] = test: Antibacterial activity against Pseudomonas aeruginosa 259-96918 assessed as fractional inhibitory concentration index incubated for 18 hrs in presence of rifampicin by broth microdilution assay; type: functional
Pseudomonas aeruginosa [22] = test: Antibacterial activity against Pseudomonas aeruginosa 260-97103 infected in Galleria mellonella larvae assessed as survival of larvae at 100 mg/kg treated at 3 hrs post-infection in presence of doxycycline and measured after 18 hrs relative to control; type: functional
Pseudomonas aeruginosa [23] = test: Antibacterial activity against Pseudomonas aeruginosa 114228 assessed as fractional inhibitory concentration incubated for 18 hrs in presence of minocycline by broth microdilution assay; type: functional
Pseudomonas aeruginosa [24] = test: Antibacterial activity against Pseudomonas aeruginosa 101885 assessed as potentiation of chloramphenicol-induced antibacterial activity by measuring chloramphenicol MIC at 7.6 uM incubated for 18 hrs in presence of chloramphenicol by broth microdilution assay (reference value: 512 ug/ml); type: functional
Pseudomonas aeruginosa [25] = test: Potentiation of chloramphenicol-induced antibacterial activity against Pseudomonas aeruginosa 259-96918 assessed as fold change in chloramphenicol MIC at 7.6 uM incubated for 18 hrs in presence of chloramphenicol by broth microdilution assay relative to control; type: functional
Acinetobacter baumannii = test: Potentiation of doxycycline-induced antibacterial activity against Acinetobacter baumannii ATCC 17978 assessed as fold change in doxycycline MIC at 7.6 uM incubated for 18 hrs in presence of doxycycline by broth microdilution assay relative to control; type: functional
Pseudomonas aeruginosa [26] = test: Antibacterial activity against Pseudomonas aeruginosa 100036 assessed as potentiation of doxycycline-induced antibacterial activity by measuring doxycycline MIC at 7.6 uM incubated for 18 hrs in presence of doxycycline by broth microdilution assay (reference value: 64 ug/ml); type: functional
Pseudomonas aeruginosa [27] = test: Antibacterial activity against Pseudomonas aeruginosa 260-97103 assessed as reduction in bacterial growth by measuring chloramphenicol MIC at 2 ug/ml incubated for 18 hrs in presence of chloramphenicol by broth microdilution assay (reference value: 128 ug/ml); type: functional; settings: dose 2 µg/ml
Pseudomonas aeruginosa [28] = test: Antibacterial activity against Pseudomonas aeruginosa 259-96918 assessed as reduction in bacterial growth by measuring doxycycline MIC at 2 ug/ml incubated for 18 hrs in presence of doxycycline by broth microdilution assay (reference value: 32 ug/ml); type: functional; settings: dose 2 µg/ml
Pseudomonas aeruginosa [29] = test: Antibacterial activity against wild type Pseudomonas aeruginosa PAO1 assessed as reduction in bacterial growth by measuring doxycycline MIC at 8 ug/ml incubated for 18 hrs in presence of doxycycline by broth microdilution assay (reference value: 16 ug/ml); type: functional; settings: dose 8 µg/ml

Compound `NC[C@H]1O[C@H](O[C@H]2[C@H](O)[C@@H](O[C@H]3O[C@H](CO)[C@@H](O)[C@H](N)[C@H]3O)[C@H](N)C[C@@H]2N)[C@H](N)C[C@@H]1O` [TOBRAMYCIN] has an MIC (Pseudomonas aeruginosa [1]) of 2050 mg/L, an MIC (Pseudomonas aeruginosa [2]) of 32 mg/L and an MIC (Pseudomonas aeruginosa [3]) of 32 mg/L. The FIC (Pseudomonas aeruginosa [4]) was 0.5 and the MIC (Pseudomonas aeruginosa [5]) was 1020 mg/L.

In the case of `CO[C@H]1/C=C/O[C@@]2(C)Oc3c(C)c(O)c4c(O)c(c(/C=N/N5CCN(Cc6cn(CCCCCCO[C@@H]7[C@@H](O[C@H]8O[C@H](CO)[C@@H](O)[C@H](N)[C@H]8O)[C@H](N)C[C@H](N)[C@H]7O[C@H]7O[C@H](CN)[C@@H](O)C[C@H]7N)nn6)CC5)c(O)c4c3C2=O)NC(=O)/C(C)=C\C=C\[C@H](C)[C@H](O)[C@@H](C)[C@@H](O)[C@@H](C)[C@H](OC(C)=O)[C@@H]1C.Cl.Cl.Cl.Cl.Cl`, the FIC (Pseudomonas aeruginosa [6]) is reported as <0.125, the MIC (Pseudomonas aeruginosa [7]) is reported as 1 mg/L and the “fractional inhibitory concentration index (FICI)” value (Pseudomonas aeruginosa [8]) is reported as <0.53. The Activity (Pseudomonas aeruginosa [9]) was “Active”, the “fold change (FC)” value (Pseudomonas aeruginosa [10]) was 32 and the “fold change (FC)” value (Pseudomonas aeruginosa [11]) was 4. The Activity (HepG2) was “Non-Toxic”, the “fractional inhibitory concentration index (FICI)” value (Pseudomonas aeruginosa [12]) was <0.25 and the “fractional inhibitory concentration index (FICI)” value (Pseudomonas aeruginosa [13]) was 0.08. For the same compound, the survival at 100 mg/kg (Pseudomonas aeruginosa [14]) was 72%, the “fractional inhibitory concentration index (FICI)” value (Pseudomonas aeruginosa [15]) was <0.28 and the “fractional inhibitory concentration index (FICI)” value (Pseudomonas aeruginosa [16]) was 0.13. The FIC (Pseudomonas aeruginosa [17]) was 0.063, the survival at 96 h [18] was 100% and the “fractional inhibitory concentration index (FICI)” value (Pseudomonas aeruginosa [19]) was <0.09. The MIC (Pseudomonas aeruginosa [20]) was 16 mg/L, the “fractional inhibitory concentration index (FICI)” value (Pseudomonas aeruginosa [21]) was <0.25 and the survival at 100 mg/kg (Pseudomonas aeruginosa [22]) was 87%. The FIC (Pseudomonas aeruginosa [23]) was <0.031.

For `CO[C@H]1/C=C/O[C@@]2(C)Oc3c(C)c(O)c4c(O)c(c(/C=N/N5CCN(Cc6cn(CCCCCCCCCCCCO[C@@H]7[C@@H](O[C@H]8O[C@H](CO)[C@@H](O)[C@H](N)[C@H]8O)[C@H](N)C[C@H](N)[C@H]7O[C@H]7O[C@H](CN)[C@@H](O)C[C@H]7N)nn6)CC5)c(O)c4c3C2=O)NC(=O)/C(C)=C\C=C\[C@H](C)[C@H](O)[C@@H](C)[C@@H](O)[C@@H](C)[C@H](OC(C)=O)[C@@H]1C.O=C(O)C(F)(F)F.O=C(O)C(F)(F)F.O=C(O)C(F)(F)F.O=C(O)C(F)(F)F.O=C(O)C(F)(F)F`, the MIC (Pseudomonas aeruginosa [24]) was 4 mg/L, the “fold change (FC)” value (Pseudomonas aeruginosa [25]) was 4 and the “fold change (FC)” value (Acinetobacter baumannii) was 0. It also gave an MIC (Pseudomonas aeruginosa [26]) of 0.5 mg/L.

In the case of `CO[C@H]1/C=C/O[C@@]2(C)Oc3c(C)c(O)c4c(O)c(c(/C=N/N5CCN(C)CC5)c(O)c4c3C2=O)NC(=O)/C(C)=C\C=C\[C@H](C)[C@H](O)[C@@H](C)[C@@H](O)[C@@H](C)[C@H](OC(C)=O)[C@@H]1C` [RIFAMPIN], the MIC (Pseudomonas aeruginosa [27]) is reported as 128 mg/L, the MIC (Pseudomonas aeruginosa [28]) is reported as 32 mg/L and the MIC (Pseudomonas aeruginosa [29]) is reported as 16 mg/L.

From ChEMBL document CHEMBL4715829, “Heterodimeric Rifampicin-Tobramycin conjugates break intrinsic resistance of Pseudomonas aeruginosa to doxycycline and chloramphenicol in vitro and in a Galleria mellonella in vivo model” (Eur J Med Chem, 2019)
